Source: PMC5412686 (Biopharmaceutics & Drug Disposition, 2017)
Values after ≈ are worked out from the molar mass of the structure shown. Like-named read-outs stand apart in the source and are kept apart here.

How the values were obtained:
[1] = Humans, cited from earlier work; for Urinary excretion (f e): excreted unchanged in urine, ref Supplemental Table S1; for CL: i.v.; for CL / F / Vss: ref Supplemental Table S2; for F: oral bioavailability
[2] = cited from earlier work
[3] = Rats, blood/plasma ratio; ref Supplemental Table S1; cited from earlier work
[4] = ref Supplemental Table S1, cited from earlier work; for HBD: number of hydrogen bond donors; for log D: octanol/water at pH 7.4; for PSA: polar surface area
[5] = Humans, blood/plasma ratio; ref Supplemental Table S1; cited from earlier work
[6] = cited from earlier work; for F: po
[7] = human, Caco-2, pH 7.4, with cyclosporine A 10 μM
Caco‐2 cells (TC7 clone) = settings: Equation 11 from measured P‐Caco2
[8] = Intrinsic metabolic clearance determined in human liver microsomes; assay type: in vitro ADME; settings: pH 7.4
[9] = Solubility in fasted state simulated intestinal fluid; assay type: physicochemical; settings: FaSSIF, 37 °C, pH 6.5, fassif, thermodynamic from solid
[10] = Rats, fraction unbound; ref Supplemental Table S1; cited from earlier work
[11] = no medium marked (buffer pH 7.4), ref Supplemental Table S1
[12] = Rats, i.v., ref Supplemental Table S2
[13] = FaHIF, fasted human intestinal fluid

SMILES | Urinary excretion (f e) [1] | CL [1] [L/h] | F [1] | Vss [1] [L/kg] | Solubility (Biorelevant media or Buffer, pH 7.4) [2, 11] [mg/ml] | HBD [4] | log D [4] | PSA [4] | CL [6, 12] [mL/min/kg] | F ([6]; rat, in vivo) | Papp at 2 h, 1 μM [7] [×10⁻⁶ cm/s] | Calculated P eff from P‐Caco2 (Caco‐2 cells (TC7 clone)) | microsomal CLint at 1 μM [8] [µL/min/mg] | other results
C=CCc1ccccc1OCC(O)CNC(C)C (stereo not drawn) [Alprenolol] | 0.5 % of dose | 65.90 | 0.06 | 2.99 | 0.55 | 2 | 1.34 | 46.2 | 79 | 0.04 | 31.5 | 3.9 10^−4 cm/s | 128 | R b [3]: 1.71; R b [5]: 0.76
COc1ccc([C@@H]2Sc3ccccc3N(CCN(C)C)C(=O)[C@@H]2OC(C)=O)cc1 [Diltiazem] | – | 48.3 | – | 5.2 | 0.47 | 0 | – | 56.5 | 42 | 0.06 | – | – | 35 | Base pKa [4]: 8.1
O=c1[nH]c2ccccc2n1CCCN1CCC(n2c(=O)[nH]c3cc(Cl)ccc32)CC1 [Domperidone] | < 1 % of dose | 42.06 | – | – | – | 2 | 3.33 | 66.8 | 39.2 | – | 38.6 | 4.3 10^−4 cm/s | 166 | solubility at 24 h [9]: 135 µg/mL (≈ 317 µM)
CC[C@H]1OC(=O)[C@H](C)[C@@H](O[C@H]2C[C@@](C)(OC)[C@@H](O)[C@H](C)O2)[C@H](C)[C@@H](O[C@@H]2O[C@H](C)C[C@H](N(C)C)[C@H]2O)[C@](C)(O)C[C@@H](C)C(=O)[C@H](C)[C@@H](O)[C@]1(C)O [Erythromycin] | – | 18.73 | 0.21 | 0.60 | 2 | 5 | 1.16 | 203.3 | 105 | 0.14 | – | – | – | –
CCC(C)n1ncn(-c2ccc(N3CCN(c4ccc(OCC5COC(Cn6cncn6)(c6ccc(Cl)cc6Cl)O5)cc4)CC3)cc2)c1=O (stereo not drawn) [Itraconazole] | < 1 % of dose | 22.86 | 0.76 | – | – | 0 | 3.27 | 84.7 | 9.1 | 0.35 | – | – | – | Solubility (Biorelevant media or Buffer, pH 7.4) [2, 13]: 0.006 (FaHIF) mg/ml; f up [10]: 0.009
CCN(CC)CC(=O)Nc1c(C)cccc1C [Lidocaine] | – | – | – | – | – | – | – | – | – | – | – | – | – | R b [3]: 1.27; R b [5]: 0.87
COCCc1ccc(OCC(O)CNC(C)C)cc1 (stereo not drawn) [Metoprolol] | – | 65.34 | – | 5.18 | – | 2 | 0.16 | 55.0 | 65.2 | – | – | – | 19 | Solubility (Biorelevant media or Buffer, pH 7.4) [2, 13]: 299.8 (FaHIF) mg/ml
Cc1ncc2n1-c1ccc(Cl)cc1C(c1ccccc1F)=NC2 [Midazolam] | < 1 % of dose | 19.38 | 0.7 | 0.74 | 0.024 | 0 | 1.53 | 20.1 | – | 0.25 | – | – | 392 | R b [3]: 0.81; Base pKa [4]: 5.6; R b [5]: 0.75; CL ([6]; rat, in vivo, iv): 46 mL/min/kg
CN1CCN2c3ncccc3Cc3ccccc3C2C1 (stereo not drawn) [Mirtazapine] | – | 38.3 | 0.4 | 3.52 | 0.002 | 0 | 0.28 | 12.3 | 29.4 | 0.07 | 33.2 | 4.0 10^−4 cm/s | 11 | –
Oc1ccc2c3c1O[C@H]1[C@@H](O)CC[C@@]4(O)[C@@H](C2)N(CC2CCC2)CC[C@]314 [Nalbuphine] | – | 90 | – | 4.63 | 35.5 | 3 | 0.81 | 78.3 | 63 | – | 29.8 | 3.8 10^−4 cm/s | < 10 | Base pKa [4]: 10.0
COC(=O)C1=C(C)NC(C)=C(C(=O)OC)C1c1ccccc1[N+](=O)[O-] [Nifedipine] | 0 % of dose | – | – | – | – | – | – | – | – | – | – | – | – | –
COCCOC(=O)C1=C(C)NC(C)=C(C(=O)OC(C)C)C1c1cccc([N+](=O)[O-])c1 (stereo not drawn) [Nimodipine] | – | 58.8 | 0.33 | 0.94 | 0.024 | 1 | 2.86 | 121.6 | 1.5 | 0.22 | 22.2 | 3.3 10^−4 cm/s | > 1000 | –
COC(=O)C1=C(C)NC(C)=C(C(=O)OCC(C)C)C1c1ccccc1[N+](=O)[O-] (stereo not drawn) [Nisoldipine] | < 1 % of dose | 50.82 | 0.04 | 4.1 | 0.006 | 1 | 4.96 | 110.5 | 45.8 | 0.03 | 56.7 | 5.2 10^−4 cm/s | > 1000 | f up [10]: 0.009
COc1ccc2[nH]c([S+]([O-])Cc3ncc(C)c(OC)c3C)nc2c1 (stereo not drawn) [Omeprazole] | 0 % of dose | 39.48 | 0.32 | – | 0.035 | 1 | 2.23 | 71.0 | 39.2 | 0.09 | – | – | < 10 | R b [3]: 0.66; R b [5]: 0.59
CCCc1nn(C)c2c(=O)[nH]c(-c3cc(S(=O)(=O)N4CCN(C)CC4)ccc3OCC)nc12 [Sildenafil] | – | 40.08 | 0.41 | – | 3.5 | 1 | 2.45 | 105.2 | 38.5 | 0.06 | 28.6 | 3.7 10^−4 cm/s | 98 | Base pKa [4]: 6.0
C=CC[C@@H]1/C=C(\C)C[C@H](C)C[C@H](OC)[C@H]2O[C@@](O)(C(=O)C(=O)N3CCCC[C@H]3C(=O)O[C@H](/C(C)=C/[C@@H]3CC[C@@H](O)[C@H](OC)C3)[C@H](C)[C@@H](O)CC1=O)[C@H](C)C[C@@H]2OC [Tacrolimus] | < 1 % of dose | 78.75 | 0.21 | 1.74 | 0.008 | 3 | 3.96 | 185.9 | 16.5 | 0.11 | – | – | – | R b [3]: 1.4; Base pKa [4]: 9.3; R b [5]: 35
Cc1nnc2n1-c1ccc(Cl)cc1C(c1ccccc1Cl)=NC2 [Triazolam] | 2 % of dose | 12.72 | 0.8 | – | 0.005 | 0 | – | 33.3 | – | 0.16 | – | – | – | CL ([6]; rat, in vivo, iv): 51.4 mL/min/kg; f up [10]: 0.28
COc1ccc(C(CN(C)C)C2(O)CCCCC2)cc1 (stereo not drawn) [Venlafaxine] | 4.6 % of dose | 60.35 | 0.37 | – | – | 1 | 0.76 | 32.8 | 64.5 | 0.13 | 33.2 | 4.0 10^−4 cm/s | < 10 | –
COc1ccc(CCN(C)CCCC(C#N)(c2ccc(OC)c(OC)c2)C(C)C)cc1OC (stereo not drawn) [Verapamil] | – | – | – | – | – | 0 | – | 56.3 | – | – | – | – | – | –
CN(C)CCc1c[nH]c2ccc(C[C@H]3COC(=O)N3)cc12 [Zolmitriptan] | 8 % of dose | 43.06 | 0.7 | – | 20 | 2 | – | 56.8 | 29.4 | 0.41 | – | – | – | –
Cc1ccc(-c2nc3ccc(C)cn3c2CC(=O)N(C)C)cc1 [Zolpidem] | < 1 % of dose | 18.85 | 0.78 | 0.68 | 23 | 0 | – | 30.0 | 15 | 0.27 | – | – | < 10 | R b [3]: 0.86; Acid pKa [4]: 6.3; R b [5]: 0.66
